Assay results as given in patent publication US20220282304A1, “SAME-SAMPLE ANTIBIOTIC SUSCEPTIBILITY TEST AND RELATED COMPOSITIONS, METHODS AND SYSTEMS” (CALIFORNIA INSTITUTE OF TECHNOLOGY, priority 2021, published 2022).

Columns and labels:
[1] = system: Escherichia coli isolate B; assay: Same-sample filtration AST, replicate treated and concurrent reference conditions (Example 3), isolate B; type: cell-based; settings: 1 μg/mL ETP, 60 minutes 37° C.
Method: (§1) Isolate A was susceptible to ertapenem, while isolate B was resistant. The inoculum was small enough that no detectable difference in the sample's optical density at 600 mm (OD600) was detectable before and after inoculation by an Ultrospec 10 spectrophotometer with an analytical sensitivity of 0.01 absorbance units. After an incubation at 37° C., the media became turbid with an OD600 of 0.5 absorbance units after about 2 hours of incubation.
(§2) To begin the AST protocol, 23.75 μL of the above 8 bacteria batch culture dilutions was twice added to and mixed with 1.25 μL of water containing either 20 μg/mL or 0 μg/mL of dissolved ertapenem (ETP) antibiotic. As a result, […] at 1 μg/mL were created, and 8 untreated reference conditions were created (see Table 2 below). The […] were incubated at 37° C. for 60 minutes.
(§3) After 60 minutes of incubation, the entire volume of each antibiotic exposure was transferred to an individual cellulose acetate filter unit with a 0.2 μm pore size. […]
(§4) 50 μL of fresh MHB media was spun through the filters after the first centrifugation (above) to wash away residual extracellular nucleic acids present in the fluid wetting the filters. […] In this experiment, the wash fluid was collected and analyzed to learn more about the protocol, but this washing step is not necessary for determining susceptibility of the isolate. […]

[2] = system: Escherichia coli isolate A; assay: Same-sample filtration AST, replicate treated and concurrent reference conditions (Example 3), isolate A; type: cell-based; settings: 1 μg/mL ETP, 60 minutes 37° C.
Method: as §1, §2, §3, §4

In the case of `C[C@@H](O)[C@H]1C(=O)N2C(C(=O)O)=C(S[C@@H]3CN[C@H](C(=O)Nc4cccc(C(=O)O)c4)C3)[C@H](C)[C@H]12` [ETP, ertapenem], the “susceptibility call (threshold: reference mean + 2 SD of fraction extracellular)” value ([1]; alternative analysis) is reported as “resistant”, the “susceptibility call (t-test treated vs untreated percent extracellular)” value ([1]; ddPCR 23S rRNA) is reported as “resistant” and the “susceptibility call (threshold: reference mean + 2 SD of fraction extracellular)” value ([2]; alternative analysis) is reported as “susceptible”. The “susceptibility call (t-test treated vs untreated percent extracellular)” value ([2]; ddPCR 23S rRNA) was “susceptible”.
